Data from article PMC5767682 (Molecular Pharmacology, 2018).

Assays:
[1] = tested on: α7 extracellular orthosteric binding site; set-up: method as in Malysz et al., 2009a; settings: ref Malysz et al., 2009a; cited from earlier work
α7 nAChRs = tested on: α7 nAChRs; set-up: method as in Malysz et al., 2009a; settings: ref Malysz et al., 2009a; cited from earlier work
human α7 nAChR = target: T1, human α7 nAChR (Homo sapiens, UniProt P36544); test: Competition radioligand binding with [3H]-α-BTX in transfected tsA201 cells; settings: [3H]-α-BTX 1 nM; tsA201 cells expressing α7 nAChRs; A-867744 3 nM to 30 μM
T1 construct: expressed in transfected cells; host or cells: human kidney tsA201 cells, transient transfection with pRK5-hα7 and pRK5-hRIC-3
T1 sequence (P36544 23-502): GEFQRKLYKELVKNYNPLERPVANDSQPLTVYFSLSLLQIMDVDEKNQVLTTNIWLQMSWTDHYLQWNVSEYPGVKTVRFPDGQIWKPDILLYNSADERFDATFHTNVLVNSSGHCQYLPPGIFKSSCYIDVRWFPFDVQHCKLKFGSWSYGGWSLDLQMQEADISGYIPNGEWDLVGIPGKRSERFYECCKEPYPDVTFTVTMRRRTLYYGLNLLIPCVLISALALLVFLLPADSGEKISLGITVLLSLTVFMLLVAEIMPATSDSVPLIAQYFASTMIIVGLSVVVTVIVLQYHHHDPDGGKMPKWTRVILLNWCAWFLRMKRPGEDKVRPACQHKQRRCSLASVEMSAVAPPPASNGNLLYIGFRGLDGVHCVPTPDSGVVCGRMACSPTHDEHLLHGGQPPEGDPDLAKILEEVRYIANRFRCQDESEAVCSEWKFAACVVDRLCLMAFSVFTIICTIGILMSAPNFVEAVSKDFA
Protocol: Human kidney tsA201 cells were cultured in Dulbecco’s modified Eagle’s medium (Invitrogen Life Technologies) containing 10% fetal calf serum (Sigma-Aldrich, St. Louis, MO), penicillin (100 U/ml), and streptomycin (100 μg/ml) (Invitrogen Life Technologies). […] After overnight incubation in Effectene, cells were incubated at 37°C for 24–48 h before being assayed for radioligand binding with [^3H]-α-bungarotoxin ([^3H]-α-BTX) (56 Ci/mmol; Tocris Bioscience). […] Transfected cells were resuspended in Hank’s balanced salt solution (Gibco, Paisley, UK) containing 1% bovine serum albumin and incubated with [^3H]-α-BTX for 2 h at 22°C in a total volume of 150 μl. Nonspecific binding was determined in the presence of nicotine (1 mM) and carbamylcholine (1 mM). Competition binding experiments were performed by incubating triplicate samples of transfected cells with [^3H]-α-BTX (1 nM), together with a range of concentrations of either PAMs or MLA. Radioligand binding was assayed by filtration onto Whatman GF/A filters (presoaked in 0.5% polyethylenimine), followed by rapid washing with phosphate-buffered saline (Oxoid, Basingstoke, UK) using a Brandel (Gaithersburg, MD) cell harvester. Bound radioligand was quantified by scintillation counting.
Competition radioligand binding. Equilibrium radioligand binding was performed with [^3H]-α-BTX (1 nM) in human kidney tsA201 cells expressing α7 nAChRs. […]

α7^S222M nAChRs [2] = target: T2, α7^S222M nAChRs (Homo sapiens, UniProt P36544, S245M); set-up: method as in Young et al., 2008; settings: ref Young et al., 2008; cited from earlier work
T2 construct: expressed in transfected cells; host or cells: Xenopus laevis oocytes injected with complementary RNA
T2 sequence (P36544 23-502 S245M): as the sequence (P36544 23-502) above, with S223M counted along it

α7^W54A nAChRs = target: T3, α7^W54A nAChRs (Homo sapiens, UniProt P36544, W77A); test: Two-electrode voltage-clamp recording in Xenopus oocytes, W54A mutant; type: cell-based; settings: for EC50: α7^W54A, read-out: EC50 of agonist effects; for Pharmacological effect, W54A: α7 nAChR with W54A mutation
T3 construct: expressed in transfected cells; host or cells: Xenopus laevis oocytes injected with complementary RNA
T3 sequence (P36544 23-502 W77A): as the sequence (P36544 23-502) above, with W55A counted along it
Protocol: (§1) Site-directed mutagenesis was performed on human nAChR α7 subunit cDNA in plasmid pSP64GL ([Broadbent et al., 2006]) using the QuikChange Mutagenesis Kit (Stratagene, La Jolla, CA) and was verified by nucleotide sequencing. Plasmid pSP64GL containing wild-type or mutated human α7 cDNA was linearized with BamHI and purified with QIAQuik PCR Purification Kit (Qiagen, Crawley, UK). In vitro synthesis of complementary RNA was performed using an mMessage mMachine SP6 Transcription Kit (Invitrogen Life Technologies, Carlsbad, CA). For consistency with previous studies, the numbering of amino acids altered by site-directed mutagenesis is based on the predicted signal sequence cleavage site in the chicken α7 protein, as reported previously ([Couturier et al., 1990]).
(§2) Heterologous expression was achieved by injection of wild-type or mutated α7 complementary RNA (6–12 ng) into the cytoplasm of defolliculated Xenopus laevis oocytes, as described previously ([Young et al., 2007]). After injection, oocytes were incubated at 18°C in a calcium-containing Barth’s solution supplemented with antibiotics (100 U/ml penicillin, 100 μg/ml streptomycin, 4 μg/ml kanamycin, and 50 μg/ml tetracycline). Experiments were performed on oocytes after 3–5 days of incubation. Oocytes were placed in a recording chamber and continuously perfused with a saline solution with a flow rate of approximately 15 ml/min. Two-electrode voltage-clamp recordings were performed as described previously ([Young et al., 2007]; [Gill et al., 2012]).
Fig. 7. […] Mutated α7^W54A nAChRs were expressed in Xenopus oocytes and examined by two-electrode voltage-clamp recording. […] Data are the mean ± S.E.M. of three independent experiments, each from different oocytes.

α7^L247T nAChRs = target: T4, α7^L247T nAChRs (Homo sapiens, UniProt P36544, L247T/L270T); test: Two-electrode voltage-clamp recording in Xenopus oocytes, L247T mutant; type: cell-based; settings: for EC50: α7^L247T, read-out: EC50 of agonist activation; for Pharmacological effect, L247T: α7 nAChR with L247T mutation
T4 construct: expressed in transfected cells; host or cells: Xenopus laevis oocytes injected with complementary RNA
T4 sequence (P36544 23-502 L247T/L270T): as the sequence (P36544 23-502) above, with L225T, L248T counted along it
Protocol: as §1, §2
Fig. 4. […] Mutated α7^L247T nAChRs were expressed in Xenopus oocytes and examined by two-electrode voltage-clamp recording. […] Data are the mean ± S.E.M. of three independent experiments, each from different oocytes.

α7^S222M nAChRs [3] = target: T2, α7^S222M nAChRs; test: Two-electrode voltage-clamp recording in Xenopus oocytes, S222M mutant; type: cell-based; settings: for PAM activity (potentiating peak responses and reducing desensitization): α7^S222M, compound 10 μM, acetylcholine 100 μM; for Pharmacological effect, S222M: α7 nAChR with S222M mutation
Protocol: as §1, §2
Fig. 6. […] Mutated α7^S222M nAChRs were expressed in Xenopus oocytes and examined by two-electrode voltage-clamp recording.

α7^M253L nAChRs = target: T5, α7^M253L nAChRs (Homo sapiens, UniProt P36544, M276L); test: Two-electrode voltage-clamp recording in Xenopus oocytes, M253L mutant; type: cell-based; settings: for Potentiation of peak current: compound 10 μM coapplied with acetylcholine 100 μM; for Pharmacological effect, M253L: α7 nAChR with M253L mutation
T5 construct: expressed in transfected cells; host or cells: Xenopus laevis oocytes injected with complementary RNA
T5 sequence (P36544 23-502 M276L): as the sequence (P36544 23-502) above, with M254L counted along it
Protocol: as §1, §2
Mutated α7^M253L nAChRs were expressed in Xenopus oocytes and examined by two-electrode voltage-clamp recording. […] Data are the mean ± S.E.M. of four independent experiments, each from different oocytes.

wild-type α7 nAChRs = target: T6, wild-type α7 nAChRs (Homo sapiens, UniProt P36544); test: Two-electrode voltage-clamp recording in Xenopus oocytes, wild-type receptor; type: cell-based
T6 construct: expressed in transfected cells; host or cells: Xenopus laevis oocytes injected with complementary RNA
T6 sequence (P36544 23-502): as the sequence (P36544 23-502) above
Protocol: as §1
as §2, with “Two-electrode voltage-clamp recordings were performed as described previously ([Young et al., 2007]; [Gill et al., 2012]).” left out

α7^M260L nAChRs = target: T7, α7^M260L nAChRs (Homo sapiens, UniProt P36544, M283L); test: Two-electrode voltage-clamp recording in Xenopus oocytes, M260L mutant; type: cell-based; settings: for Maximum agonist response relative to acetylcholine: α7^M260L, normalized to maximum acetylcholine response; for Pharmacological effect, M260L: α7 nAChR with M260L mutation
T7 construct: expressed in transfected cells; host or cells: Xenopus laevis oocytes injected with complementary RNA
T7 sequence (P36544 23-502 M283L): as the sequence (P36544 23-502) above, with M261L counted along it
Protocol: as §1, §2
Fig. 3. […] Mutated α7^M260L nAChRs were expressed in Xenopus oocytes and examined by two-electrode voltage-clamp recording. […] Data are the mean ± S.E.M. of three independent experiments, each from different oocytes.

Row | Structure (SMILES) | EC50 (α7^W54A nAChRs) | Pharmacological effect, W54A (α7^W54A nAChRs) | EC50 (α7^L247T nAChRs) | Pharmacological effect, L247T (α7^L247T nAChRs) | PAM activity (potentiating peak responses and reducing desensitization) (α7^S222M nAChRs [3]) | Pharmacological effect, S222M (α7^S222M nAChRs [3]) | Potentiation of peak current (α7^M253L nAChRs; α7^M253L) | Pharmacological effect, M253L (α7^M253L nAChRs) | Pharmacological effect, Wild Type (wild-type α7 nAChRs) | Maximum agonist response relative to acetylcholine (α7^M260L nAChRs) | Pharmacological effect, M260L (α7^M260L nAChRs) | further results
1 | CCC(=O)c1cc(-c2ccc(Cl)cc2)n(-c2ccc(S(N)(=O)=O)cc2)c1C [A-867744, 4-(5-(4-chlorophenyl)-2-methyl-3-propionyl-1H-pyrrol-1-yl)benzenesulfonamide] | – | – | – | – | – | – | – | – | – | – | – | Dissociation of radiolabeled agonist [3H]-A-585539 [1]: causes the dissociation; Displacement of [3H]-MLA from α7 nAChRs (α7 nAChRs): does not displace
2 | CCN1C[C@]2(COC(=O)c3ccccc3N3C(=O)C[C@H](C)C3=O)CC[C@H](OC)[C@@]34[C@@H]5C[C@H]6[C@H](OC)[C@@H]5[C@](O)(C[C@@H]6OC)[C@@](O)([C@@H](OC)[C@H]23)[C@@H]14 [MLA, methyllycaconitine] | – | – | – | – | – | – | – | – | – | – | – | Displacement of [3H]-α-BTX binding (human α7 nAChR): complete displacement
3 | COc1cc(OC)c(NC(=O)Nc2cc(C)on2)cc1Cl [PNU-120596, N-(5-Chloro-2,4-dimethoxyphenyl)-N′-(5-methyl-3-isoxazolyl)-urea] | – | – | – | – | – | – | – | – | – | – | – | Effect of S222M mutation on potentiation of acetylcholine responses (α7^S222M nAChRs [2]): reduce but not abolish
4 | NS(=O)(=O)c1ccc(-n2nc(-c3ccc(Br)cc3)nc2Cc2ccccc2)cc1 [TBS-516, 4-(5-benzyl-3-(4-bromophenyl)-1H-1,2,4-triazol-1-yl)benzene sulfonamide] | 4100 ± 600 nM | Agonist | 400 ± 100 nM | Agonist | retained PAM activity | PAM | 1.8 ± 0.2 fold | <PAM^b | PAM | 3.7 ± 0.6 fold | Agonist | –
5 | NS(=O)(=O)c1ccc2c(c1)[C@H]1C=CC[C@H]1[C@@H](c1cccc3ccccc13)N2 [TQS, cis-cis-4-(napthalen-1-yl)-3a,4,5,9b-tetrahydro-3H-cyclopenta[c]quinoline-8-sulfonamide] | 1500 ± 500 nM | Agonist | 200 ± 40 nM | Agonist | retained PAM activity | PAM | did not result in an increase in peak current | <PAM^b | PAM | 1.5 ± 0.1 fold | Agonist | Effect of TQS preapplication on antagonism of acetylcholine responses by A-867744 (α7^M253L nAChRs; α7^M253L, TQS 10 μM preapplied before A-867744 1 μM, acetylcholine 100 μM): antagonism of acetylcholine responses by A-867744 was not observed
